Laboratory results as given in US20240382487A1, “NOVEL COPI/ARF1-LIPOLYSIS PATHWAY INHIBITOR AND COMPOUND FOR ERADICATING CANCER STEM CELLS AND INDUCING DAMP-MEDIATED ANTI-TUMOR IMMUNE RESPONSE” (FUDAN UNIVERSITY, priority 2020, published 2024).
Where two headings read alike, the source gives them in different places.

Experiments:
lung cancer cells H460 = test: In vitro cell line screening, H460; assay type: cell-based
Description: In different tumor cytotoxicity experiments in vitro (FIG. 2-FIG. 7), including colorectal cancer cell lines HT29 and LoVo cells, liver cancer cell Huh7, lung cancer cells H460 and A549, the arf1 inhibitor could all inhibit tumor cell growth (FIG. 2-FIG. 6), and there was a dose-dependent manner (FIG. 7).

mice = test: Toxicity in mice, oral gavage; assay type: in vivo; details: mouse, in vivo, po
CT-26 colon cancer = test: Vaccination model, drug-treated CT-26 cells in BALB/c mice; assay type: in vivo; parameters: tumor size, left side with drug treatment / tumors on right side after vaccination on left side: unit not given here; details: CT-26, BALB/c mice; for tumor size, left side with drug treatment: cells treated with 10 μM Du 102; for tumors on right side after vaccination on left side: untreated cells re-challenge
B16-F10 melanoma [1] = test: Drug-treated B16-F10 cells in athymic nude mice; assay type: in vivo; parameters: unit not given here; details: cells treated with 10 μM Du 102
Procedure: The immunogenicity of the reagents can be tested in mouse vaccination models (Obeid et al., 2007; Sagiv barfi et al., 2018). One flank of the mouse was injected with drug treated tumor cells, followed one week later by a second injection of syngeneic tumor cells. We tested the vaccine efficacy in CT-26 colon cancer, B16-F10 melanoma, and 4T1 breast cancer treated with DMSO or du102.
Cells will be treated with 10 μM Du 102 or DMSO treated CT26, 4T1 and B16-F10 tumor cells (5×10^5\1×10^5 and 5×10^5, respectively) were subcutaneously inoculated into 6-week-old female mice. After 7 days, equal amounts of corresponding tumor cells were seeded to the right side. Tumor cell lines were mixed with Matrigel (GIBCO, cat s̆ 354234) or resuspended in PBS and injected subcutaneously or intradermally.

B16-F10 melanoma [2] = test: Vaccination model, drug-treated B16-F10 cells in C57B/6 mice; assay type: in vivo; parameters: unit not given here; details: B16-F10, C57B/6 mice; for tumor size, left side with drug treatment: cells treated with 10 μM Du 102
IL-1β = IL-1β assay, CD11c+ DCs co-cultured with treated CT26 cells; assay type: cell-based; details: CT-26 colon cancer model, BALB/c mice; co-culture 2 days
Procedure: For IL-1 β Assay: seven days after CT26 cell lysate injection. CD11c+DCs were isolated from injected BALB/c mice and co cultured with CT26 cells treated with DMSO or du102. After 2 days, […] was measured in harvested cells (Table 11). For the IFN-y assay: CD11c^+ DC and CD8^+ T cells were isolated from injected BALB/c mice 7 days after CT26 cell lysate injection and co cultured with CT26 cells treated with DMSO or du102. After 2 days. IFN-y was measured in harvested cells (table 11).

[3] = system: normal human bone marrow hematopoietic stem cells (HSCs)
Description: We tested 10 reported Arf1 inhibitors (Bill et al., 2011; Boal et al., 2010; Feng et al., 2004; Newton et al., 2006; Ohashi et al., 2012; Sáenz et al., 2009; Sorieul et al., 2011; Viaud et al., 2007), including brefeldin A (BFA), Golgicide A (GCA), LM11, Secin16, Secin H3, Secin B7, Exo1, Exo2, LG8, and LG18, on Drosophila stem cell tumors and normal human bone marrow hematopoietic stem cells (HSCs).

1H-indolo-5-carbaldehyde 5,6,7,8,9,10-hexahydrocycloocta[4,5]thieno[2,3-d]pyrimidin-4-ylhydrazone [Du 102]
tumor suppressive effect (lung cancer cells H460): potency tumor suppressive effect
tumor suppressive effect (lung cancer cells H460; listed as Dul02): effective tumor suppressive effects
toxic effects (mice): no toxic effects were observed
regression of both left- and right-sided tumours (CT-26 colon cancer; tables 3 and 4): almost complete regression
tumor size, left side with drug treatment (CT-26 colon cancer; Day 0): 0
tumors on right side after vaccination on left side (CT-26 colon cancer; Day 0): 0
tumor size, left side with drug treatment (CT-26 colon cancer; Day 5): 0
tumors on right side after vaccination on left side (CT-26 colon cancer; Day 5): 0
tumor size, left side with drug treatment (CT-26 colon cancer; Day 10): 2
tumors on right side after vaccination on left side (CT-26 colon cancer; Day 10): 0
tumor size, left side with drug treatment (CT-26 colon cancer; Day 15): 8
tumor size, left side with drug treatment (CT-26 colon cancer; Day 20): 57
tumors on right side after vaccination on left side (CT-26 colon cancer; Day 20): 3.7
tumor size, left side with drug treatment (CT-26 colon cancer; Day 25): 81
tumors on right side after vaccination on left side (CT-26 colon cancer; Day 25): 7.6
tumor size, left side with drug treatment (CT-26 colon cancer; Day 30): 178
tumors on right side after vaccination on left side (CT-26 colon cancer; Day 30): 14.1
B16-F10 melanoma tumor in Athymic mice (B16-F10 melanoma [1]; Day 0): 0
B16-F10 melanoma tumor in Athymic mice (B16-F10 melanoma [1]; Day 5): 7.3
B16-F10 melanoma tumor in Athymic mice (B16-F10 melanoma [1]; Day 10): 51.8
B16-F10 melanoma tumor in Athymic mice (B16-F10 melanoma [1]; Day 15): 202.7
B16-F10 melanoma tumor in Athymic mice (B16-F10 melanoma [1]; Day 20): 355.9
B16-F10 melanoma tumor in Athymic mice (B16-F10 melanoma [1]; Day 25): 853.4
tumors on right side after vaccination on left side (B16-F10 melanoma [2]; Day 0): 0
tumor size, left side with drug treatment (B16-F10 melanoma [2]; Day 0): 0
tumors on right side after vaccination on left side (B16-F10 melanoma [2]; Day 5): 0
tumor size, left side with drug treatment (B16-F10 melanoma [2]; Day 5): 0
tumors on right side after vaccination on left side (B16-F10 melanoma [2]; Day 10): 0
tumor size, left side with drug treatment (B16-F10 melanoma [2]; Day 10): 2
tumors on right side after vaccination on left side (B16-F10 melanoma [2]; Day 15): 0.6
tumor size, left side with drug treatment (B16-F10 melanoma [2]; Day 15): 8
tumors on right side after vaccination on left side (B16-F10 melanoma [2]; Day 20): 1.3
tumor size, left side with drug treatment (B16-F10 melanoma [2]; Day 20): 57
tumors on right side after vaccination on left side (B16-F10 melanoma [2]; Day 25): 9.1
tumor size, left side with drug treatment (B16-F10 melanoma [2]; Day 25): 81
tumors on right side after vaccination on left side (B16-F10 melanoma [2]; Day 30): 21.3
tumor size, left side with drug treatment (B16-F10 melanoma [2]; Day 30): 177
IL-1β (IL-1β): 954
toxicity (killing normal HSCs) [3]: relatively low toxicity
